Measured values from patent publication US8524636B2 (Dow Global Technologies LLC, priority 2010, dated 2013).
Like-named read-outs stand apart in the source and are kept apart here.

How the values were obtained:
[1] = tested on: green algae (Selenastrum capricornutum); details: cited from earlier work
[2] = tested on: Cladosporium herbarum mixed with Trichoderma viride; test: Fungal efficacy on dry paint film (Modified ASTM 5590), pool TV + Ch; type: cell-based
Description: (§1) A single biocide or blend of biocides was post added into white acrylic latex paint free of biocides to give a maximum total active ingredient/s concentration tested. This paint was then diluted with a biocide free acrylic latex paint to give targeted concentrations for the testing. Depending on the type of biocide blends tested, the total biocides concentrations varies from 400 to 3300 ppm. After biocides addition or dilution, each sample was hand mixed for at least a minute until uniformity was achieved. Each of the paint samples as well as a control sample (containing no biocide) were used to prepare films on black plastic-vinyl chloride/acetate copolymer panels (Leneta Company, Mahwah, N.J.) using a 0.0762 mm (3 mil) bird bar applicator. The panels were thoroughly dried for at least 2 days avoiding direct exposure to sunlight. Square discs (0.5 inch^2; 1.27 cm^2) were cut out from each panel and were used as the substrate for fungal and algal efficacy tests. This sample size allowed for an agar border when the sample disc was placed into the well of the test plate. Each sample was tested in duplicate.
(§2) The appropriate media (BOLD'S 3N for Chlorophytes, BG-11 for Cyanobacteria, and PDA for fungi) were used to support microbial growth. The test plates were maintained at room temp (25° C.-26° C.), in a cycled light-dark environment, for four weeks for algae. Plates for fungal challenge tests were maintained at 30° C. for four weeks. At the end of the incubation period the samples were scored for percent area covered by visible microbial growth.
(§3) Fungal efficacy was tested as follows (Modified ASTM 5590).
ASTM 5590 is a standard accelerated test method for determining resistance of various coatings (including paints) to fungal defacement. To accommodate for high-throughput screening, this method was scaled down from petri plates to 6-well plates. […] The total percent area covered was evaluated and recorded at the end of each week and recorded in increments of 5%.
(§4) The SI is calculated based on F. C. […]

[3] = tested on: Aspergillus niger mixed with Penicillium funiculosum; test: Fungal efficacy on dry paint film (Modified ASTM 5590), pool An + Pf; type: cell-based; details: for % Inhibition, An + Pf: dry film, four weeks
Description: as §1, §2, §3
(§5) ASTM 5590 is a standard accelerated test method for determining resistance of various coatings (including paints) to fungal defacement. To accommodate for high-throughput screening, this method was scaled down from petri plates to 6-well plates. To set up the test, an agar plug was placed at the bottom of each well of the sterile 6-well plate. A single coupon was placed with a pair of sterile forceps at the center of the agar plug (on top) with the painted surface facing upwards. Fungal inoculums were prepared by mixing equal concentrations (approximately 1×10^6 cfu/ml) and equal volumes (depending on number of samples to be tested) of like growing organisms. For this synergy study, three pools of mixed fungi were prepared as the test inoculum. Cladosporium herbarum was mixed with Trichoderma viride, Aspergillus niger was mixed with Penicillium funiculosum and Alternaria alternata was mixed with Aureobasidium pullulans. Each well was inoculated with 400 microliter of organism mixture (approximately 1×10^6 cfu/ml) making sure that the whole surface (paint film as well as the agar surrounding it) was evenly covered. The plates were incubated at 30° C. in presence of moisture, for a period of four weeks. The total percent area covered was evaluated and recorded at the end of each week and recorded in increments of 5%.
(§6) The SI is calculated based on F. C. Kull et.
(§7) SI value of <1 in the formula indicates a synergism of the blended biocides exists.
(§8) NE=no end point at the concentration tested that will meet the percent inhibition criteria set in each SI calculation.

[4] = tested on: Gloeocapsa sp. and Oscillatoria sp.; test: Algal efficacy on dry paint film (Modified ASTM 5589), pool Gs + Os; type: cell-based
Description: as §1, §2
Algal efficacy was tested as follows (Modified ASTM 5589).
ASTM 5589 is a standard accelerated test method for determining resistance of various coatings (including paints) to algal defacement. To accommodate for high-throughput screening, this method was scaled down from petri plates to 6-well plates. A single coupon was placed with a pair of sterile forceps at the center of the agar plug (on top) with the painted surface facing upwards. Algal inoculums were prepared by mixing equal concentrations (approximately 1×10^6 cfu/ml) and equal volumes (depending on number of samples to be inoculated) of like growing organisms.
In this synergy study, three pool of mixed algae were prepared as the test inoculum, Gloeocapsa sp. and Oscillatoria sp. a mix of cyanobacteria grown on BG-11 media; Chlorella sp., Chlorella kessleri, and Nostoc commune are unicellular chlorphytes that were mixed and grown on Bold media; Trentepohlia aurea, Tretepohlia odorata, and Calotrix parientina are filamentous algae that were mixed and grown on Bold media.
Each well that contained a tested coupon was inoculated with 400 μl of organism mixture (approximately 1×10^6 cfu/ml) making sure that the whole surface (paint film as well as the agar surrounding it) was evenly covered. The plates were incubated at room temp (25° C.-26° C.) with cyclic exposure to light (OTT-Lite model # OTL4012P, 40 Watt, 26 KLumen) and dark phases, for a period of four weeks. The total area covered was evaluated at the end of each week according to percent area covered in 5% increments.
as §6, §7, §8

[5] = tested on: Alternaria alternata mixed with Aureobasidium pullulans; test: Fungal efficacy on dry paint film (Modified ASTM 5590), pool Aa + Ap; type: cell-based
Description: as §1, §2, §3
as §5, with “Each well was inoculated with 400 microliter of organism mixture (approximately 1×10^6 cfu/ml) making sure that the whole surface (paint film as well as the agar surrounding it) was evenly covered. The plates were incubated at 30° C. in presence of moisture, for a period of four weeks.” left out
as §4

[6] = Total conc 1500 ppm (synergy table)
[7] = Total conc 750 ppm (synergy table)
[8] = Conc. 750 ppm in paint, dry film, four weeks
[9] = Conc. 2500 ppm in paint, dry film, four weeks
[10] = Total conc 2500 ppm (synergy table)
[11] = Conc. 1500 ppm in paint, dry film, four weeks

Row | Molecule | EbC50 (median effective concentration for biomass) ([1]; 72 hr) | ErC50 (median effective concentration for growth rate) ([1]; 72 hr) | EbC50 (median effective concentration for biomass) ([1]; 7 day) | % Inhibition, TV + Ch [2, 6] | % inhibition, AnPf [3, 7] | % Inhibition, Gs + Os [4, 6] | % inhibition, Aa + Ap [5, 7] | % Inhibition, TV + Ch [2, 8] | % Inhibition, TV + Ch [2, 9] | % Inhibition, An + Pf ([3]; Conc. 750 ppm in paint) | % Inhibition, An + Pf ([3]; Conc. 1500 ppm in paint) | % Inhibition, An + Pf ([3]; Conc. 2500 ppm in paint) | % inhibition, AnPf [3, 10] | % Inhibition, Gs + Os [4, 8] | % Inhibition, Gs + Os [4, 11] | % Inhibition, Gs + Os [4, 9] | % inhibition, Aa + Ap [5, 11] | % inhibition, Aa + Ap [5, 9] | % inhibition, Aa + Ap [5, 10]
1 | O=C(O)CNCP(=O)(O)O [Glyphosate, N-(phosphonomethyl)glycine] | 485 mg/L | 460 mg/L | 13.8 mg/L |  |  |  |  |  |  |  |  |  |  |  |  |  |  |  | 
2 | CCCCNC(=O)OCC#CI [IPBC, 3-iodo-2-propynyl-butylcarbamate, reference compound] |  |  |  | 75% | 65% | 82.5% | 90% |  |  |  |  |  |  |  |  |  |  |  | 
3 | Zinc Glyphosate |  |  |  |  |  | 72.5% |  | 50% | 90% | 20% | 27.5% | 30% | 30% | 15% | 72.5% | 90% | 47.5% | 70% | 70%
